Measurements as given in ChEMBL document CHEMBL1148592, “Synthesis and antiviral evaluation of cyclic and acyclic 2-methyl-3-hydroxy-4-pyridinone nucleoside derivatives” (J Med Chem, 2006).

Legend:
[1] = system: Human immunodeficiency virus 1; assay: Antiviral activity against HIV1 IIIB in CEM cells; type: functional, organism-based; details: Human immunodeficiency virus 1, 3B, CCRF-CEM
Human alphaherpesvirus 1 [2] = assay: Antiviral activity against HSV1 KOS in HEL cells; type: functional, organism-based; details: Human alphaherpesvirus 1, KOS
[3] = system: Human immunodeficiency virus 2; assay: Antiviral activity against HIV2 ROD in CEM cells; type: functional, organism-based; details: Human immunodeficiency virus 2, ROD, CCRF-CEM
[4] = Minimum toxic concentration in HEL cells; type: toxicity, cell-based; details: human, read-out: MTC
CCRF-CEM = assay: Cytotoxicity in CEM cells; type: functional; details: Homo sapiens
Human alphaherpesvirus 1 [5] = assay: Antiviral activity against HSV1 TK- in HEL cells; type: functional, organism-based; details: Human alphaherpesvirus 1, TK-
Human alphaherpesvirus 2 = assay: Antiviral activity against HSV2 G in HEL cells; type: functional, organism-based; details: Human alphaherpesvirus 2, G

SMILES | EC50 [1] [µM] | EC50 (Human alphaherpesvirus 1 [2]) [µM] | EC50 [3] [µM] | MCC [4] [µM] | CC50 (CCRF-CEM) [µM] | EC50 (Human alphaherpesvirus 1 [5]) [µM] | EC50 (Human alphaherpesvirus 2) [µM]
Nc1ccn(C[C@@H](CO)OCP(=O)(O)O)c(=O)n1 [CIDOFOVIR] | > 10 | 0.57 | > 10 | > 350 |  |  | 
Cc1c(O)c(=O)ccn1[C@H]1CC[C@H](CO)O1 | > 90 | 177 | > 90 | > 900 | 84 | > 177 | > 177
Nc1nc2c(ncn2COC(CO)CO)c(=O)[nH]1 [GANCICLOVIR] | > 50 |  | > 50 |  |  |  | 0.06
Nc1nc2c(ncn2COCCO)c(=O)[nH]1 [ACYCLOVIR] | > 50 | 1.12 | > 50 | > 1700 |  | 86.6 | 1.76
Cc1cn([C@H]2C[C@H](N=[N+]=[N-])[C@@H](CO)O2)c(=O)[nH]c1=O [ZIDOVUDINE] | 0.0055 |  | 0.0055 |  | > 100 |  | 
Cc1c(O)c(=O)ccn1[C@H]1CS[C@@H](CO)O1 (racemic) | > 80 | 32 | > 80 | > 400 | 188 | 80 | 81
Cc1c(O)c(=O)ccn1CCOCP(=O)(O)O | > 50 | > 200 | > 50 | > 200 | > 50 |  | > 200
Cc1c(OCc2ccccc2)c(=O)ccn1[C@H]1CC[C@@H](CO)O1 | > 150 | > 200 | > 150 | > 900 | > 150 | > 200 | > 200
Cc1c(O)c(=O)ccn1[C@@H]1CC[C@@H](CO)O1 | > 50 | 177 | > 50 | > 900 | 101 | > 177 | > 177
Cc1c(O)c(=O)ccn1[C@@H]1CS[C@@H](CO)O1 (racemic) | > 80 | 40 | > 80 | > 400 | 188 | 95 | 90
Cc1c(O)c(=O)ccn1[C@H]1CC[C@@H](CO)O1 | > 50 | 40 | > 50 | > 900 | > 50 | 500 | > 900
